# Measurements taken from article PMC9124866, “Structure-Activity Relationships of Dopamine Transporter Pharmacological Chaperones” (Frontiers in Cellular Neuroscience, 2022).
# Counter-ions that a name gives are not always drawn. Like-named read-outs stand apart in the source and are kept apart here.
# Columns and labels:
# K590A DAT = biological target: T1, K590A DAT (Homo sapiens, UniProt Q01959, K590A); assay: Western blot of mature K590A DAT protein levels; format: cell-based; conditions: overnight treatment
# T1 construct: expressed in transfected cells; host or cells: HEK293
# Protocol: (§1) Cells (1 × 10^6 cells/well) were seeded onto a 6-well plate and incubated for 24 h. Cells were then treated with drugs and incubated for 16 h. After the incubation period, cells were lysed in RIPA buffer supplemented with protease inhibitors (working concentrations: pepstatin A, 5 μg/mL; leupeptin, 10 μg/mL; aprotinin, 1.5 μg/mL; benzamidine, 0.1 μg/mL; PMSF, 0.1 mM) on ice. At 4°C, cell lysates were gently shaken for 15 min followed by centrifugation at 15,000 rpm for 15 min to pellet debris. The Pierce BCA protein assay kit (Thermo Fisher Scientific, Canada) was used to determine the protein concentration of the supernatant. To reach a concentration of 40 μg of protein per 20 μL, samples were diluted in fresh RIPA buffer with 12.5% Laemmli sample buffer and 2.5% β-Mercaptoethanol prior to being heated to 55°C. The protein was then loaded on a 7.5 or 10% SDS-PAGE gel and run at 100 V for approximately an hour or until the dye front reached the bottom of the gel. Next, protein was transferred to a PVDF membrane at 22 V for 16 h or 100 V for 1 h. Blots were blocked with LI-COR blocking buffer for 1 h and incubated for 1 h at room temperature with rabbit anti-GFP (1:1,000 dilution; Life Technologies, cat#A11122). After washing three times with TBST, blots were incubated with goat anti-rabbit IRDye-680RD secondary antibody (1:15,000; LI-COR, cat#926-68071). As a loading control, blots were incubated with mouse anti-GAPDH (1:5,000, Sigma-Aldrich, Canada, cat#G8795) prior to secondary antibody goat anti-mouse IRDye-800GR (1:5,000 dilution, Rockland, Limerick, PA, cat#610-132-007). All antibodies were diluted in LI-COR blocking buffer. Additionally, REVERT total protein staining (LI-COR, Lincoln, NE) was used as a loading control. […] Mature, fully glycosylated DAT (mDAT = 110 kDa) and immature, ER-resident DAT (iDAT = 75 kDa) were visualized using the Odyssey Imaging System (LI-COR, Lincoln, NE) and Image Studio Version 5.2 software (Supplementary Figure 1).
# (§2) We next assessed whether drugs that increase DAT surface expression also increase total protein levels of DAT. Cells expressing YFP-HA-DAT were incubated with select test compounds and DAT protein levels were examined by western blot. The effects of the compounds were assessed on WT DAT and K590A DAT. The K590A mutant is a well-characterized ER-retained, trafficking-deficient DAT mutant ([Miranda et al., 2004]) that can be rescued by pharmacological chaperones ([Beerepoot et al., 2016]).
# (§3) FIGURE 5 Effect of noribogaine, tetrahydroharmine, PAL-594, bicifadine, and RTI-20 on WT and K590A DAT expression. […] (B) Quantification of WT mDAT protein levels. […] (D) Quantification of K590A mDAT protein levels. […]
# WT DAT (YFP-HA-DAT) = biological target: T2, WT DAT (YFP-HA-DAT) (Homo sapiens, UniProt Q01959); assay: Western blot of mature WT DAT protein levels; format: cell-based; conditions: overnight 100 μM
# T2 construct: expressed in transfected cells; host or cells: HEK293
# Protocol: as §1, §2, §3
# YFP-HA-βlac-DAT [1] = biological target: T3, YFP-HA-βlac-DAT (Homo sapiens, UniProt Q01959); assay: β-lactamase (βlac) surface expression assay; format: cell-based; conditions: assumed effective EMax
# Protocol: The βlac surface expression assay was performed by following the method outlined in [Lam et al. (2013)] and [Beerepoot et al. (2015], [2016)]. The assay substrate nitrocefin (BD biosciences) was dissolved in dimethyl sulfoxide (DMSO) at a concentration of 10 mM and frozen at −80°C. Immediately before use, it was thawed and diluted to a final concentration of 100 μM in phosphate buffered saline (PBS). Cells (1 × 10^5/well) were seeded into a poly-D-lysine-coated 48-well plate and incubated for 24 h, prior to drug treatment. Drugs were added to individual wells at varying concentrations and incubated for 16 h. Subsequently, the media was aspirated, and the cells were washed twice with PBS. After removal of the final PBS wash, 200 μL of the nitrocefin solution was added to each well and the absorbance was immediately read. The EPOCH microplate spectrophotometer (BioTek) was used to measure absorbance (486 nm) for each well every minute for 30 min. The rate of reaction (slope of the curve) was used as the readout for the assay ([Beerepoot et al., 2015]). To determine suitable concentration ranges for each drug, they were dissolved in PBS or DMSO at the highest concentration possible. From here, the solutions were serial diluted 1/10 to yield 8 different concentrations. βLAC cells were then treated with the varying drug concentrations and cell viability was recorded using light microscopy. For additional measure, nitrocefin was added and the absorbance was read. For certain cases, Trypan Blue was used to quantitatively differentiate increased cell death from reduced cell division. […] Five or six doses were generally used in subsequent dosing experiments, starting at the highest non-toxic concentration.
# Data analysis was performed using GraphPad Prism (GraphPad Software, La Jolla, CA). Linear regression analysis was performed on βLAC time points to determine the slope, thus the rate of reaction, for comparison. Furthermore, the slope was also used to determine the degree of dopamine uptake in the dopamine uptake assays. Non-linear regression, fitting to the log(agonist) vs. response and log(inhibitor) vs. response model curve, was used to determine dose-response relationships of surface expression and uptake assays, respectively. One-way ANOVA with Dunnett’s post hoc-test was used for the β-lactamase assay and one-way ANOVA with Bonferroni correction was used for western blot analysis.
# Among these were RTI-1, RTI-2, RTI-5, RTI-6, RTI-11, RTI-20, and PAL-1007. […] The EMax values of all the analyzed drugs are included in Figure 1.
# The pharmacological chaperone ability of the 15 ibogaine and tryptamine analogs, shown in Figure 3, were measured using the βlac surface expression assay. HEK cells expressing YFP-HA-βlac-DAT were incubated overnight with these compounds at concentrations varying by log and half-log dilutions, starting at 100 μM final concentration. […] Furthermore, it was important to determine whether the β-carboline analogs could also elicit a chaperone effect because they are not classified as DAT ligands ([Cao et al., 2007]). […] Removing the nitrogen from the ring reduced efficacy as observed with frovatriptan (103 ± 1.4%). […] Evodiamine (54 ± 1.7%) had no chaperone ability and caused a substantial reduction in the surface expression of DAT. Dose-response curves were generated to assess the pharmacological chaperone potencies of select compounds (Figure 4).
# YFP-HA-βlac-DAT [2] = biological target: T3, YFP-HA-βlac-DAT; parameters: method as in Beerepoot et al., 2016; conditions: previous experiments; ref Beerepoot et al., 2016; cited from earlier work
# DAT [3] = biological target: T4, DAT (Homo sapiens, UniProt Q01959); conditions: read-out: IC50, dopamine uptake inhibition; ref Carroll et al., 2009; cited from earlier work
# T4 construct: expressed in transfected cells
# DAT [4] = biological target: T4, DAT; conditions: read-out: Ki, DAT binding; ref Carroll et al., 2009; cited from earlier work
# DAT [5] = biological target: T4, DAT; assay: Dopamine uptake inhibition dose response of hit compounds (Figure 6); format: cell-based; conditions: doses 1 nM to 100 μM, normalized to vehicle
# Protocol: Dopamine uptake inhibition was conducted using the Neurotransmitter Transporter Uptake Assay Kit (Molecular Devices, prod#R8173). Cells (1 × 10^5/well) were seeded into 96-well plates and incubated for 24 h. The cells were subjected to overnight drug treatment. The following day, wells were washed and incubated for 30 min with a mixture of 1X Hank’s Balanced Salt Solution (HBSS) and 0.1% Bovine Serum Albumin (BSA) Buffer. Dopamine uptake inhibitors were added during the incubation period. Following the incubation, the fluorescent dye was added, and the plate was immediately transferred to the bottom-read fluorescence microplate reader (Spectramax M3, Molecular Devices) for kinetic read-mode. The assay reads the amount of fluorescent activity which increases as fluorescent dye molecules are transported into the cells by the DAT. The read-out for this assay is the slope which equals the fluorescent measurements/time, ultimately denoting the uptake rate.
# Data analysis was performed using GraphPad Prism (GraphPad Software, La Jolla, CA). Linear regression analysis was performed on βLAC time points to determine the slope, thus the rate of reaction, for comparison. Furthermore, the slope was also used to determine the degree of dopamine uptake in the dopamine uptake assays. […]
# [6] = HEK293, read-out: EMax (%), WT DAT surface expression, HEK cells expressing YFP-HA-βlac-DAT, overnight (16 h) incubation, up to 100 μM, normalized to vehicle
# [7] = HEK293, HEK cells expressing YFP-HA-βlac-DAT, overnight (16 h) incubation, up to 100 μM, normalized to vehicle, read-out: EMax (%), WT DAT surface expression
# T4 sequence (Q01959 whole entry): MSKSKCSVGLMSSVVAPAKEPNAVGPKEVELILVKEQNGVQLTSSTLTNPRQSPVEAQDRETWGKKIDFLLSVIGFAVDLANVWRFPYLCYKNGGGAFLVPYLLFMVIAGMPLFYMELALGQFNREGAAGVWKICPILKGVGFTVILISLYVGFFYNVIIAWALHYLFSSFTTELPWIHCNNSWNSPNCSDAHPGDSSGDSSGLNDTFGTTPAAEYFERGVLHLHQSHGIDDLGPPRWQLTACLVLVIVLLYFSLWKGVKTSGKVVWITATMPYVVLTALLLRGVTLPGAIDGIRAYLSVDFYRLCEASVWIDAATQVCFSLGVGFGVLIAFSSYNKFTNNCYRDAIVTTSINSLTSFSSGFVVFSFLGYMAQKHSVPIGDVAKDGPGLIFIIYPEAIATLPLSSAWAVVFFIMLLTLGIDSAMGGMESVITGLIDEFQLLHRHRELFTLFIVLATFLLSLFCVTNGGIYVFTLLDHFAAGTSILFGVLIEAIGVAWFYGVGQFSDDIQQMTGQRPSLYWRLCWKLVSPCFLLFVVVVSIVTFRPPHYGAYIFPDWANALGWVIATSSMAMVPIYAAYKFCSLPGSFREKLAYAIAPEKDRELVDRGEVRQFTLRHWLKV
# T3 sequence (Q01959 1-171 limits assumed): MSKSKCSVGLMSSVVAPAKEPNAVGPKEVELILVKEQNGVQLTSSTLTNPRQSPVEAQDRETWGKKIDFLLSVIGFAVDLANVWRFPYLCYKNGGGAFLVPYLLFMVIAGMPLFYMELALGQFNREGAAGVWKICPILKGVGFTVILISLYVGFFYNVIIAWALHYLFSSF
# T3 sequence (Q01959 237-620 limits assumed): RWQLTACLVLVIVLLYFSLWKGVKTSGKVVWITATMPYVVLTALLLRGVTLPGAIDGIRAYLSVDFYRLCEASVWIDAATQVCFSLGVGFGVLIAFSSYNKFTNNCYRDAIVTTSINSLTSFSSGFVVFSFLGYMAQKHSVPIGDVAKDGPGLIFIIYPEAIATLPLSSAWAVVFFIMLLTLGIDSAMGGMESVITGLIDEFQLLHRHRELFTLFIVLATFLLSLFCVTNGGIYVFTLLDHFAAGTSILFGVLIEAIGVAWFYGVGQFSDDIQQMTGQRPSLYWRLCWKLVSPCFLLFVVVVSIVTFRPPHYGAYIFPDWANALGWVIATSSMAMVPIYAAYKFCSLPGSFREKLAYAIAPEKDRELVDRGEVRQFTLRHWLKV
# T2 sequence (Q01959 whole entry): as the sequence (Q01959 whole entry) above
# T1 sequence (Q01959 whole entry K590A): as the sequence (Q01959 whole entry) above, with K590A counted along it
Molecule,K590A DAT (mDAT) protein levels (K590A DAT),mature WT DAT (mDAT) protein levels (WT DAT (YFP-HA-DAT)),Emax (YFP-HA-βlac-DAT [1]; [6]) [%],previously reported increase of WT DAT surface expression (EMax) (YFP-HA-βlac-DAT [2]) [%],Emax (YFP-HA-βlac-DAT [1]; [7]) [%],also measured
"Cc1ccc(C23CNCC2C3)cc1 (stereo not drawn) [Bicifadine, bicifadine]",statistically significant effect,significantly increase,149 ± 15,,,
"CC(NC(C)(C)C)C(=O)c1cccc(Cl)c1 (stereo not drawn) [Bupropion, Bupropion hydrochloride, reference compound]",,,144 ± 7.7,137,,
CC1NCCOC1c1cccc(Cl)c1 (stereo not drawn) [PAL-594],statistically significant effect,significantly increase,,,166 ± 8.7,
Cc1ccc(C(=O)C(C)NC(C)(C)C)cc1 (stereo not drawn) [RTI-5],,,,,140 ± 5.5,IC50 (DAT [3]): 6.84 µM; Ki (DAT [4]): > 10 µM
CCCC(NC(C)(C)C)C(=O)c1cccc(Cl)c1 (stereo not drawn) [RTI-12],,,,,113 ± 6.3,maximal dopamine uptake inhibition (DAT [5]): 96%
ibogaine [reference compound],,,,187,,"EMax (%), WT DAT surface expression (YFP-HA-βlac-DAT [1]; HEK cells expressing YFP-HA-βlac-DAT, overnight (16 h) incubation, up to 100 μM, normalized to vehicle): 222 ± 7.9%"
